This is an account of results in ChEMBL document CHEMBL3102770, “Development and pharmacological characterization of conformationally constrained urotensin II-related peptide agonists” (J Med Chem, 2013).

For orientation: Emax means the greatest response seen or fitted, relative to the assay's reference.

Each structure is given as a SMILES string.

The target of assay [1] is T1, Urotensin-2 receptor (Rattus norvegicus) (UniProt P49684).
T1 sequence (whole entry): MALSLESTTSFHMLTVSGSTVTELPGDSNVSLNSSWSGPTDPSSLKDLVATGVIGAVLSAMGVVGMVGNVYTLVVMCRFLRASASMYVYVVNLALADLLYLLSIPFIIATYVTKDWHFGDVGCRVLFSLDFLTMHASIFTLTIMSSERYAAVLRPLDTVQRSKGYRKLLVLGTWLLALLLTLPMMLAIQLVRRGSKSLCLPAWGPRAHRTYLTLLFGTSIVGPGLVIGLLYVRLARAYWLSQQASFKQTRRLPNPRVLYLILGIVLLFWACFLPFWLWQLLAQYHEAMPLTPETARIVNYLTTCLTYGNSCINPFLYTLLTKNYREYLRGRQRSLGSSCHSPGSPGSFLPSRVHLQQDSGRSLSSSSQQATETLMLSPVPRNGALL
As to the kind of experiment: Agonist activity at urotensin-2 receptor in Sprague-Dawley rat aortic rings assessed as KCl-induced vasoconstriction at 10^-5.5 M relative to control.

Assay [2] deals with T2, Urotensin-2 receptor (Rattus norvegicus, UniProt P49684).
T2 sequence (P49684 whole entry): T1 sequence (whole entry)
In words: Agonist activity at urotensin-2 receptor in Sprague-Dawley rat aortic rings assessed as KCl-induced vasoconstriction. Particulars: read-out: pEC50 (converted).

Assay [3] concerns the target T3, Urotensin-2 receptor (Homo sapiens, UniProt Q9UKP6).
T3 sequence (Q9UKP6 whole entry): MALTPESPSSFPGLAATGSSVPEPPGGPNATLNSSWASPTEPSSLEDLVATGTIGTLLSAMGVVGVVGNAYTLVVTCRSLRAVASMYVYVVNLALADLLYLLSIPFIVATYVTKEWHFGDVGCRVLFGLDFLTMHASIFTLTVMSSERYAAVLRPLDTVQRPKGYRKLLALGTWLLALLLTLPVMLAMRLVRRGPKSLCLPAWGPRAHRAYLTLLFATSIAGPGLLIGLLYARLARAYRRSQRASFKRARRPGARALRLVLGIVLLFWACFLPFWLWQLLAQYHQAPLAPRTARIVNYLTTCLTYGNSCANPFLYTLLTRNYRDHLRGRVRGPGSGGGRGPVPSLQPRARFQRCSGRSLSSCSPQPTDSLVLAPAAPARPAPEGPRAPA
In words: Displacement of [125I]-Urotensin-2 from human GPR14 expressed in CHO cells after 90 mins by gamma counting analysis. Particulars: read-out: pIC50 (converted). The class given is cell-based. For orientation: Displacement assays read how much labelled ligand stays bound in the presence of the test substance.

With `CC(C)[C@H](NC(=O)[C@@H]1CSSC[C@H](NC(=O)[C@H](C)N)C(=O)N[C@@H](Cc2ccccc2)C(=O)N[C@@H](C(c2ccccc2)c2ccccc2)C(=O)N[C@@H](CCCCN)C(=O)N[C@@H](Cc2ccc(O)cc2)C(=O)N1)C(=O)O`, the Emax in assay [1] amounted to 23%. Moreover, the EC50 in assay [2] is greater than 1000 nM. For the same compound, the IC50 in assay [3] was 282 nM.
